Test results: US20240165202A1, “USES OF FGF21 POLYPEPTIDES AND FUSION POLYPEPTIDES THEREOF” (SUNSHINE LAKE PHARMA CO., LTD., priority 2021, published 2024)

Tests used:
[1] = test system: ob/ob mice nonalcoholic steatohepatitis (NASH) model; test: ob/ob mice high-fat diet NASH model, 6 weeks dosing: serum lipids, liver weight, liver function, liver lipids; format: in vivo; conditions: 10 nmol/kg
Procedure: (§1) 70 Male ob/ob mice (Changzhou Cavens Laboratory Animal Co., Ltd.) weighed about 43-45 g were fed with high-fat diet (D12492, Research Diets, Inc., New Brunswick, NJ) for 9 weeks to establish a nonalcoholic steatohepatitis (NASH) model. 3 Weeks after HFD feeding, the therapeutic efficacy of the compounds dual target fusion protein 1 #, Fc-FGF21 (single target 1 #) and Dulaglutide were tested after 6 weeks of dosing. The experimental animals were randomly divided into 5 groups according to body weight and blood glucose after […] of HFD feeding: the model group (group-1, n=10), the dual target fusion protein 1 #-3 nmol/kg group (group-2, n=10); the dual target fusion protein 1 #-10 nmol/kg group (group-3, […]); Fc-FGF21-10 nmol/kg group (group-4, n=10); Dulaglutide-10 nmol/kg (group-5, n=10). The model group was administrated PBS. The groups of dual target fusion protein 1 #, Fc-FGF21, and Dulaglutide were administrated twice a week for a total of 6 weeks. Feed intake, water intake and body weight of animals were recorded every two days after the start of HFD feeding until the end of the experiment. Blood glucose was measured at 0, 2, 7, 24, 48, 72 hours after the first administration, and then twice a week. At the end of the experiment, the animals were fasted to detect fasting blood glucose.

[2] = test system: ob/ob mice nonalcoholic steatohepatitis (NASH) model; test: ob/ob mice high-fat diet NASH model, 6 weeks dosing: blood glucose and body weight; format: in vivo; conditions: 10 nmol/kg
Procedure: as §1

[3] = test system: ob/ob mice nonalcoholic steatohepatitis (NASH) model; test: ob/ob mice high-fat diet NASH model, 6 weeks dosing: liver pathological scores; format: in vivo; conditions: 10 nmol/kg twice a week, Mean ± SEM, n = 10
Procedure: as §1

[4] = test system: high-fat-induced C57BL/6 mice model; test: High-fat diet induced C57BL/6 mice: serum lipids, ALT/AST, liver weight, liver homogenate lipids; format: in vivo; conditions: 16th week of administration
From the text: (§2) After 16 weeks of high-fat diet feeding (D12492, Research Diets, Inc., New Brunswick, NJ), C57BL/6 mice (purchased from Hunan SJA Laboratory Animal Co., Ltd.) were randomly divided into vehicle group or treatment group according to the measured blood glucose and body weight. The study included control group with normal diet, high-fat diet Model group was administrated with vehicle PBS, subcutaneous injection of semaglutide once a day (QD) 10 nmol/kg, dual target 1 # was administrated twice weekly (BIW), the low dose was 3 nmol/kg and the high dose was 10 nmol/kg, 7 animals in each group. The drug groups were administrated the corresponding drugs according to the administration frequency for 16 consecutive weeks, and the high-fat diet was continued during the administration period until the end of the experiment. The random blood glucose, body weight and intraperitoneal glucose tolerance IPGTT of mice were monitored.
(§3) At the end of the experiment of Example 4, that is, the 16th week of administration, the animals were fasted overnight and could drink water. After the animals were weighed, the orbital blood was collected, serum was separated, and serum lipids (TG (triglyceride), TC (total cholesterol)) and liver function indexes ALT (alanine aminotransferase)/AST (aspartate aminotransferase) were detected by an automatic biochemical analyzer. Serum insulin levels were detected by Elisa kit, and the HOMA-IR index was calculated according to the formula, that is, HOMA-IR=fasting blood glucose (blood glucose value at 0 time of IPGTT in the 16th week)×fasting insulin/22.5. After the blood was collected, the liver, subcutaneous fat, epididymal fat and perirenal fat were dissected and weighed. About 40-60 mg of liver tissue was weighed and put into a homogenization tube, 1 mL of absolute ethanol was added for homogenization, then the homogenate was taken and centrifuged at 4° C., 3,500 rpm for 10 min. The supernatant was taken, and the concentrations of TG and TC in the supernatant were detected by an automatic biochemical analyzer, and then the contents of TG and TC were calculated according to the weighed liver weight

[5] = test system: high-fat diet induced C57BL/6 mice model; test: High-fat diet induced C57BL/6 mice: liver histopathology NAS and fibrosis scores; format: in vivo; conditions: 10 nmol/kg (semaglutide QD, dual target 1# BIW), 16 weeks, Mean ± SD, n = 6-7
From the text: as §2
The left lobe of the liver obtained by dissection in Example 5 was immersed in a 50 mL centrifuge tube filled with formalin to prepare liver disease sections, and the formalin liver tissue was subjected to wax block making, sectioning, HE staining, and HE staining slices were mailed to Suzhou KCl Co., Ltd. for NAS scoring; fibrosis was assessed by Sirius red staining, and the scores were scored according to the severity of fibrosis, with a score of 1-3. Liver histopathological changes were observed under light microscope and NAS/fibrosis scores were performed.

[6] = test system: high-fat-induced C57BL/6 mice model; test: High-fat diet induced C57BL/6 mice, 16 weeks dosing: random blood glucose, IPGTT, fasting glucose, insulin, HOMA-IR, body weight, fat mass; format: in vivo
From the text: as §2, §3

[7] = mouse models; cited from earlier work
[8] = 10 nmol/kg (semaglutide QD, dual target 1# BIW), 16 weeks, Mean ± SD, n = 6-7

Dulaglutide
level of serum TG compared with the model group [1]: significantly decreased
serum TC level compared with the model group [1]: not significantly decreased
weight growth rate compared with the model group ([2]; D1 to D43): decreased significantly
average weight loss rate ([2]; D1 to D43, p<0.01 or 0.001): 8.9%
blood glucose level versus model group ([2]; after 5 days, P>0.05): less different from that of the model group
Inflammatory infiltration Scores [3]: 0.57 ± 0.13
Liver ballooning Scores [3]: 0.43 ± 0.26
NAS scores [3]: 3.80 ± 0.41
Steatosis Scores [3]: 2.80 ± 0.07

Semaglutide
TG in liver homogenate compared with the Model [4]: significantly reduce
liver absolute weight compared with the Model [4]: significantly reduce
serum ALT level compared with the Model [4]: significantly reduce
serum AST level compared with the Model [4]: significantly reduce
serum TC compared with Model [4]: significantly reduce
serum TG compared with Model [4]: significantly reduce
NAS total score [5]: 0.0 ± 0.0
Fibrosis Manual Score ([5]; Sirius red, score 1-3): 1.5 ± 0.5
Balloon degeneration ([5]; score): 0.0 ± 0.0
Inflammation ([5]; score): 0.0 ± 0.0
Liver steatosis ([5]; score): 0.0 ± 0.0
Epididymal fat [6, 8]: 1.0 ± 0.5 g
Perirenal fat [6, 8]: 0.6 ± 0.6 g
Subcutaneous fat [6, 8]: 0.9 ± 1.0 g
Total Fat [6, 8]: 2.6 ± 2.1 g
weight loss ([6]; 10 nmol/kg, 16 weeks): 24.3%
blood glucose AUCO-72h after the first administration, compared with the Model group ([6]; 10 nmol/kg, p<0.05): significantly reduce
body weight growth rate compared with the Model group ([6]; 16 weeks, P<0.001): significantly reduce
insulin level compared with Model ([6]; end of experiment, serum, P<0.001): significantly reduce
HOMA-IR index compared with Model ([6]; end of experiment, P<0.001): significantly reduce
IPGTT: blood glucose after glucose administration and area under the blood glucose curve, compared with Model ([6]; weeks 2, 8 and 16, 30-90 min or 15-90 min after glucose): significantly reduce

B1: FGF21: member of the FGF family (fibroblast growth factors); native FGF21 with short half-life (protein, UniProt Q9NSA1 29-209, looked up)
Fibroblast growth factor 21: HPIPDSSPLLQFGGQVRQRYLYTDDAQQTEAHLEIREDGTVGGAADQSPESLLQLKALKPGVIQILGVKTSRFLCQRPDGALYGSLHFDPEACSFRELLLEDGYNVYQSEAHGLPLHLPGNKSPHRDPAPRGPARFLPLPGLPPALPEPPGILAPQPPDVGSSDPLSMVGPSQGRSPSYAS
half-life [7]: about 1 h
